Measurements as given in patent US8791092B2 (priority 2009, dated 2014).
pIC50: −log10 of the molar value. Entries after “also recorded” stand apart in the source; their conditions may differ.

Key:
[1] = biological target: β2-microglobulin (β2m) (Homo sapiens, UniProt P61769); assay: Fibrillogenesis of β2-microglobulin (ThT fluorescence and EM); assay type: biochemical; settings: 1:10 or 1:20 concentration ratio
[2] = biological target: T1, Aβ42 (Homo sapiens, UniProt P05067); assay: β-sheet formation by Aβ42 under agitation (shaking); assay type: biochemical; parameters: C) 30 μM Aβ42; settings: 10 μM Aβ42; 1:10 Aβ:tweezers concentration ratio; shaken at 200 rpm
Method: Aβ42 was used at 10 μM. […] The samples were shaken at 200 rpm.

[3] = biological target: T1, Aβ42; assay: Aβ42 aggregation measured by dynamic light scattering (DLS); assay type: biochemical; parameters: C) 30 μM Aβ42
[4] = tested on: Aβ42-induced toxicity in differentiated PC-12 cells; assay: Aβ42-induced toxicity, MTT assay in differentiated PC-12 cells; assay type: cell-based
Method: (§1) Cell viability relative to media control was measured using the MTT assay.
(§2) Freshly prepared 10 μM Aβ40 or Aβ42 were mixed with each of the three tweezers derivatives and added to differentiated PC-12 cells. Cell viability relative to media control was measured using the MTT assay.
(§3) 7. […] Based on the capability of the tweezers to inhibit Aβ aggregation, disaggregate pre-formed Aβ fibrils, and stabilize putatively non-toxic Aβ oligomers, we predicted that they should inhibit Aβ-induced toxicity. […] Next, we evaluated the dose-dependence of the effect of each of the three tweezers derivatives on Aβ40 and Aβ42 using the same cell culture system. Aβ42 was used at 10 μM as in the previous experiment, whereas the less neurotoxic Aβ40 was used at 25 μM. […] PC-12 cells were differentiated for 48 hours prior to the start of the assay. […] Based on the data extant, prediction of inhibitory activity based on tweezers structure alone is impossible. Thus, using molecular tweezers as inhibitors of Aβ toxicity is by no means trivial.

[5] = biological target: T2, Aβ40 (Homo sapiens, UniProt P05067); assay type: binding; parameters: A) 25 μM Aβ40; settings: 1:1 Aβ40:TW1 concentration ratio
[6] = biological target: T3, calcitonin (Homo sapiens, UniProt P01258); assay: Fibrillogenesis of calcitonin (ThT fluorescence and EM); assay type: biochemical; settings: 1:10 or 1:20 concentration ratio
T3 sequence (P01258 85-116 limits assumed): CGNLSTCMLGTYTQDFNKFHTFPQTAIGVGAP

[7] = tested on: primary mouse hippocampal neurons; assay: Aβ42-mediated inhibition of miniature excitatory postsynaptic currents (mEPSCs); assay type: cell-based; settings: 3 μM Aβ42, 1:10 Aβ42:TW1
Method: Cells were perfused with vehicle for 5 min to establish baseline, and then with peptide or peptide:tweezers solutions for additional 20 minutes, and allowed to recover in vehicle solution for 15 minutes.
(§4) 8. […] An early neurotoxic event induced by Aβ oligomers and believed to be a predominant pathologic mechanism causing amnestic mild cognitive impairment (MCIa) and early AD^(1) is disruption of synapse morphology and communication (Shankar et al. (2007) J. Neurosci. 27: 2866-2875). […] Aβ42 oligomers caused essentially complete depletion of dendritic spines (FIG. 14, panels B, C) compared to control (FIG. 14, panel A). […] This effect endured after the 15-min washing period.

[8] = biological target: T1, Aβ42; assay: Quiescent Aβ42 fibril formation measured by electron microscopy (EM); assay type: biochemical; parameters: C) 30 μM Aβ42; settings: 25 μM Aβ42 + 20 μM TW1, days 3, 5, 10
Method: 8 μL of each solution were applied to glow-discharged, carbon-coated Formvar grids and incubated for 20 min. The samples were fixed by incubating with 5 μL of 2.5% glutaraldehyde for 5 min, and stained with 5 μL of 1% uranyl acetate for 5 min. The stained samples were examined using a JEOL CX100 electron microscope. A-C) 25 μM Aβ42. […] A, D) day 3. B, E) day 5. C, F) day 10.
5. TW1 attenuates Aβ fibril formation as measured by electron microscopy (EM).

[9] = biological target: insulin (Homo sapiens, UniProt P01308); assay: Fibrillogenesis of insulin (ThT fluorescence and EM); assay type: biochemical; settings: 1:10 or 1:20 concentration ratio
[10] = tested on: Aβ40-induced toxicity in differentiated PC-12 cells; assay: Aβ40-induced toxicity, MTT assay in differentiated PC-12 cells; assay type: cell-based
Method: as §2, §3

[11] = biological target: T1, Aβ42; assay: Quiescent Aβ42 β-sheet formation measured by thioflavin T (ThT) fluorescence; settings: 25 μM Aβ42, 20 μM tweezers, substoichiometric
[12] = tested on: rat primary hippocampal neurons; assay: Aβ42-induced decrease in dendritic spine density; assay type: cell-based
Method: Neurons were visualized by staining F-actin with phalloidin (red) and nuclei were stained with DAPI (blue). A) Untreated cells show abundant dendritic spines (rough appearance). B and C) Show duplicate fields from the same experiment. Cells incubated with 500 nM Aβ42 oligomers show essential absence of spines (smooth neurites).
as §4

[13] = tested on: differentiated PC-12 cells; assay: Effect of tweezers alone on cell viability, MTT assay; assay type: cell-based; settings: 50 μM TW1
Method: as §1, §2, §3

[14] = biological target: T4, islet amyloid polypeptide (IAPP) (Homo sapiens, UniProt P10997); assay: Fibrillogenesis of islet amyloid polypeptide (ThT fluorescence and EM); assay type: biochemical; settings: 1:10 or 1:20 concentration ratio
T4 sequence (P10997 34-70 limits assumed): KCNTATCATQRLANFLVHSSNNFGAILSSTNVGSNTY

[15] = biological target: T2, Aβ40; settings: 20 μM Aβ40, 10-fold excess TW1; for over a month

T2 sequence (P05067 672-711 limits assumed): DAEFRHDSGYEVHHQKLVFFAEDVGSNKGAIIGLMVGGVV
T1 sequence (P05067 672-713 limits assumed): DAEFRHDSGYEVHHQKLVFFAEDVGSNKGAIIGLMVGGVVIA
Sequence of β2-microglobulin (β2m) (P61769 21-119): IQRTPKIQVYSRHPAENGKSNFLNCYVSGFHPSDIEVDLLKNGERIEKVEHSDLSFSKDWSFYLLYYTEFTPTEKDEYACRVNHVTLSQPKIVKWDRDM
Sequence of insulin (P01308 25-54 limits assumed, species assumed): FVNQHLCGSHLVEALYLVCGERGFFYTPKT
Sequence of insulin (P01308 90-110 partner limits assumed, species assumed): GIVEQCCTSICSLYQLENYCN

O=P(O)(O)Oc1c2c(c(OP(=O)(O)O)c3c1C1C[C@H]3c3cc4c(cc31)C1C[C@H]4c3ccccc31)[C@@H]1CC2c2cc3c(cc21)[C@@H]1CC3c2ccccc21 [TW1]
inhibition of β2m fibrillogenesis [1]: inhibited the fibrillogenesis; also recorded: inhibited the aggregation | inhibition of β-sheet formation by Aβ42 under agitation [2]: efficient inhibition; also recorded: completely inhibited | Aβ42 particle growth (DLS) ([3]; 20 μM Aβ42, 10-fold excess TW1, for over a month): no particle growth was observed | Aβ42 particle growth (DLS) ([3]; 1:1 concentration ratio): substantially delayed or not observed at all | inhibition of Aβ42-induced toxicity (in words) ([4]; 10 μM Aβ42, tweezers 0.1-100 μM, dose-dependence experiment): inhibit Aβ-induced toxicity dose-dependently | pIC50 ([4]; Rattus norvegicus, 10 μM Aβ42, tweezers 0.1-100 μM, PC-12 differentiated 48 hours, read-out: IC50, inhibition of Aβ42-induced toxicity): 4.22 | times more TW1 required to inhibit Aβ42 than Aβ40 toxicity ([4]; from IC50 values): 9-10 times | binding site of TW1 in the 1:1 complex (ECD) [5]: within the Aβ(14-23) region, most likely at Lys16; also recorded: Lys16 | inhibition of calcitonin fibrillogenesis [6]: inhibited the fibrillogenesis; also recorded: inhibited the aggregation | rescue of Aβ42-induced reduction of mEPSC frequency [7]: rescued to baseline level; also recorded: rescues the toxic effect of Aβ42 to baseline level | conversion of Aβ42 to typical amyloid fibrils (EM) [8]: delayed substantially | inhibition of insulin fibrillogenesis [9]: inhibited the fibrillogenesis; also recorded: inhibited the aggregation | pIC50 ([10]; Rattus norvegicus, PC-12, 48 h, read-out: IC50, inhibition of Aβ40-induced toxicity): 5.15 | inhibition of Aβ40-induced toxicity (in words) ([10]; tweezers 0.1-100 μM, dose-dependence experiment): inhibit Aβ-induced toxicity dose-dependently | inhibition of β-sheet formation by Aβ42 (ThT) [11]: inhibit β-sheet formation | rescue of Aβ42-induced depletion of dendritic spines, TW1 present during oligomer preparation ([12]; 500 nM Aβ42 oligomerized in presence of 250 nM TW1, 48 h): rescued this toxic effect to baseline level; also recorded: essentially complete rescue | rescue of dendritic spines, TW1 added with pre-formed Aβ42 oligomers ([12]; 500 nM pre-formed Aβ42 oligomers, 5 μM TW1 (10-fold excess), 48 h): moderate rescue effect | effect of TW1 alone on dendritic spine morphology ([12]; 5 μM TW1): no effect | toxicity of tweezers alone (in words) [13]: nontoxic | inhibition of IAPP fibrillogenesis [14]: inhibited the fibrillogenesis; also recorded: inhibited the aggregation | Aβ40 particle growth (DLS) [15]: no particle growth was observed
